ChEMBL document CHEMBL1153799, “Synthesis of sialic acid derivatives having a C=C double bond substituted at the C-5 position and their glycopolymers” (Bioorg Med Chem Lett, 2009)
Activity calls are given as the source filed them.

Experiments:
Assay type in all cases: functional, organism-based
[1] = system: Influenza A virus; experiment: Inhibition of human Influenza virus A/PR/8/34 (H1N1)-mediated hemagglutinination of erythrocytes; conditions: A/Puerto Rico/8/1934(H1N1)
[2] = system: H3N2 subtype; experiment: Inhibition of human Influenza virus A/Aichi/2/68(H3N2)-mediated hemagglutinination of erythrocytes; conditions: A/Aichi/2/1968(H3N2)
[3] = system: Influenza A virus; experiment: Inhibition of duck Influenza A virus A/DK/HK/313/78(H5N3)-mediated hemagglutinination of erythrocytes

Measured: Activity

C=CC(=O)NCC(=O)N[C@H]1[C@H]([C@H](O)[C@H](O)CO)O[C@](SCCCCCCCCCCCC)(C(=O)O)C[C@@H]1O
active: all assays above

C=CC(=O)NCCCCCC(=O)N[C@H]1[C@H]([C@H](O)[C@H](O)CO)O[C@](SCCCCCCCCCCCC)(C(=O)O)C[C@@H]1O
active: all assays above
